This note sets out measurements from US20110244060A1, “CARDIOPROTECTIVE EFFECTS OF NUTRACEUTICALS ISOLATED FROM NIGELLA SATIVA SEEDS” (UNIVERSITI PUTRA MALAYSIA, priority 2008, published 2011).

Series [1] relates to Apo E mRNA. The series is described as follows: Apo E mRNA expression in rat liver, real-time PCR. The conditions noted are these: rat liver (in vivo), compared to the control.
Series [2] deals with HMG-COAR mRNA. The series can be described thus: HMG-COAR mRNA expression in rat liver, real-time PCR. The conditions noted are these: rat liver (in vivo), compared to the control. On the procedure: At the end of the experiment, all the rats were dissected and liver tissues for RNA isolation were removed, snap frozen with liquid nitrogen within approximately 2 min of death, and stored at −80° C. for gene expression study. Total RNA was isolated from HepG2 cells and rats liver tissues using RiboPure RNA Isolation Kit according to the manufacturer's instructions. […] Real-time quantitative PCR was performed using the Quantict Probe Real time PCR master mix according to the manufacturer's instructions. TaqMan Primers and probes specific for LDLR and HMG-COA genes were designed using the sequence entries from GenBank (Table. 1) Database and synthesis by Integrated DNA Technologies (IDT). Human beta-actin mRNA was used as housekeeping gene, TaqMan Primers and probes specific for human beta-actin gene was synthesis by Sigma Aldrich. The probes were labeled with FAM 3′ end and the fluorophores 6FAM at 5′ end. The real-time quantitative PCR reaction for each sample was carried out in triplicate and each experiment was repeated twice. […] Analysis of gene expression data was carried out by ΔΔCT method of relative quantification, according to Kenneth, et al, (2001) (32). […]
Background: In qPCR the cycle at which signal appears reflects the starting amount.

Series [3] concerns Apo B100 mRNA. The series can be described thus: Apo B100 mRNA expression in HepG2 cells, real-time PCR. The class given is cell-based, human. The note with it: HepG2 cells (in vitro), compared to the control. The procedure: (§1) For the determination of mRNA expression levels of LDLR, HMG-COAR, beta actin, Apo A-1, Apo E and Apo B100 by real time PCR, HepG2 cells were plated in 6-well plates at a density of 1.8×10^5 cells/well for 24 h. The cells were incubated with 10% HLPDS for 24 h with or without adding 2 μg/ml 25OH for another 24 h. The cells were treated with TQRF at two different doses, 80 and 50 μg/ml for 24 h, and with TQ at dose of 2 μg/ml Total RNA was isolated from HepG2 cells and rats liver tissues using RiboPure RNA Isolation Kit according to the manufacturer's instructions. […] Real-time quantitative PCR was performed using the Quantict Probe Real time PCR master mix according to the manufacturer's instructions. TaqMan Primers and probes specific for LDLR and HMG-COA genes were designed using the sequence entries from GenBank (Table. 1) Database and synthesis by Integrated DNA Technologies (IDT). Human beta-actin mRNA was used as housekeeping gene, TaqMan Primers and probes specific for human beta-actin gene was synthesis by Sigma Aldrich. The probes were labeled with FAM 3′ end and the fluorophores 6FAM at 5′ end. The real-time quantitative PCR reaction for each sample was carried out in triplicate and each experiment was repeated twice. […] Analysis of gene expression data was carried out by ΔΔCT method of relative quantification, according to Kenneth, et al, (2001) (32). […]

The test system of series [4] is Apo B100 mRNA. The series can be described thus: Apo B100 mRNA expression in rat liver, real-time PCR. The note with it: rat liver (in vivo), compared to the control.
Series [5] deals with Apo A-1 mRNA. The series is described as follows: Apo A-1 mRNA expression in HepG2 cells, real-time PCR. Format: cell-based, human. The note with it: HepG2 cells (in vitro), compared to the control. On the procedure:
as §1

Series [6] deals with Apo A-1 mRNA. The series is described as follows: Apo A-1 mRNA expression in rat liver, real-time PCR. The note with it: rat liver (in vivo), compared to the control.
In another series the test system is hydroxyl radical. The series can be described thus: Hydroxyl radical scavenging activity of rat plasma by ESR. Format: in vivo. The conditions noted are these: plasma of rats after 8 weeks of treatment, different doses.
In series [7] the test system is Sprague-Dawley rats fed with diets supplemented with 1% cholesterol. The series is described as follows: Hypocholesterolemic effect of TQRF and TQ in rats fed 1% cholesterol diet (plasma TC, LDLC). The conditions noted are these: for TC levels in experimental rats: 1% cholesterol diet. The class given is in vivo, rat.
Series [8] deals with LDLR mRNA. The series can be described thus: LDLR mRNA expression in HepG2 cells, quantitative real-time PCR. The class given is cell-based, human. The conditions noted are these: TQ 2 μg/ml, compared to control cells.
Series [9] deals with Apo E mRNA. The series is described as follows: Apo E mRNA expression in HepG2 cells, real-time PCR. Format: cell-based, human. The conditions noted are these: HepG2 cells (in vitro), compared to the control. The procedure: as §1
The test system of series [10] is HMG-COAR mRNA. The series is described as follows: HMG-COAR mRNA expression in HepG2 cells, real-time PCR. The class given is cell-based, human. The note with it: HepG2 cells (in vitro), compared to the control. On the procedure: as §1
The subject of series [11] is LDLR mRNA. The series can be described thus: LDLR mRNA expression in liver of experimental rats, quantitative real-time PCR. The class given is in vivo. The note with it: rat liver, compared with untreated rats.
A short description of series [12]: Toxicity parameters (ALT, GGT, urea, creatinine) of plasma from experimental rats. The conditions noted are these: rat, in vivo. The procedure: In the present invention, the in vivo (rabbit study) antioxidant activity of NSP and NSO were measured using Selectra E manufacture Vital scientific machine (UK) and with commercial kits (Randox, Crumlin, Co. Antrim, UK). The present invention provides a method of the antioxidant activity of TQRF and TQ on .OH scavenging activity using ESR in experimental rats. The present invention provided clear understanding of the molecular mechanism by which TQRF and TQ exert their lowering cholesterol property. The regulatory effect of TQRF and TQ on genes involved in cholesterol metabolism such as LDLR, HMG-COAR, Apo A-1, Apo B100 and Apo E were investigated in vitro using HepG2 cells and in vivo using Sprague-Dawley rats. The present invention also provides evidence on the safety of selective doses of TQRF, TQ, NSO and NSP by measuring the toxicity parameters including Alanine aminotransferase (ALT), Gamma-glutamyltranspeptidase (GGT), urea and creatinine of plasma collected from experimental rats and rabbits.
Toxicity parameter including, ALT of plasma samples collected from experimental rats at baseline, middle of the treatment and the end f the treatment s were measured using analytical kit by kinetic UV assay using Roche Selectra E machine.

Molecules are shown by their SMILES. Marks after values point to notes of the source that are not given here.

For `CC1=CC(=O)C(C(C)C)=CC1=O` [TQ, Thymoquinone], the “Apo E mRNA expression” value in the series with Apo E mRNA [1] and with Apo E mRNA [9] was “up-regulated” throughout. For the same molecule, the “HMG-COAR mRNA expression” value in the series with HMG-COAR mRNA [2] and in the series with HMG-COAR mRNA [10] was “down-regulated” throughout. In addition, the “Apo B100 mRNA expression” value in the series on Apo B100 mRNA [3] and with Apo B100 mRNA [4] was “down-regulated” in each case. Moreover, the “Apo A-I mRNA expression” value in the series on Apo A-1 mRNA [5] and with Apo A-1 mRNA [6] was “up-regulated” in each case. Further, the “hydroxyl radical scavenging activity of plasma (ESR)” value in the series on hydroxyl radical is reported as “able to directly scavenge .OH”. The “TC levels in experimental rats” value was 1.49 ± 0.24 ^b mmol/l in [7] (TQ 1 group (20 mg/kg oral emulsion), after 4 weeks); 1.48 ± 0.22 ^a, c mmol/l in [7] (TQ 1 group (20 mg/kg oral emulsion), after 8 weeks); 0.85 ± 0.19 mmol/L in [7] (TQ 1 group (20 mg/kg oral emulsion), baseline); 1.47 ± 0.31 ^b mmol/l in [7] (TQ 2 group (50 mg/kg oral emulsion), after 4 weeks); 1.01 ± 0.34 ^a mmol/l in series [7] (TQ 2 group (50 mg/kg oral emulsion), after 8 weeks); 0.97 ± 0.05 mmol/L in series [7] (TQ 2 group (50 mg/kg oral emulsion), baseline). The “TC levels in experimental rats” value in [7] (TQ 3 group (dose 20 mg/kg, oral emulsion), after 4 weeks) was 1.41 ± 0.48 ^b mmol/l; in series [7] (TQ 3 group (dose 20 mg/kg, oral emulsion), after 8 weeks), 0.94 ± 0.30 ^a mmol/l; in series [7] (TQ 3 group (dose 20 mg/kg, oral emulsion), baseline), 0.87 ± 0.26 mmol/L. In addition, in series [7] (rats, different doses for 8 weeks, compared to controlled group), the “plasma low density lipoprotein cholesterol (LDLC)” value is listed as “significant decrease”. Moreover, the “increase of LDLR mRNA expression level” value in the series on LDLR mRNA [8] was “two”. Also, the “increase of LDLR mRNA level” value is reported as “two” in the series with LDLR mRNA [11] (TQ 20 mg/kg body weight) and “seven” in the series on LDLR mRNA [11] (TQ 100 mg/kg body weight). For the same molecule, in [12], the “toxicity (hepatic and kidney enzyme stability, organ integrity)” value is “non toxic”.
